This passage reports MIC results from ChEMBL document CHEMBL5042487, “Design, synthesis, and biological activity evaluation of 2-(benzo[b]thiophen-2-yl)-4-phenyl-4,5-dihydrooxazole derivatives as broad-spectrum antifungal agents” (Eur J Med Chem, 2022).

Holding throughout (type): functional
One assay concerns Aspergillus fumigatus. Nature of the assay: Antifungal activity against Aspergillus fumigatus CGMCC 3.7795 assessed as inhibition of fungal growth by NCCLS protocol based method.
Another assay relates to Candida tropicalis. Nature of the assay: Antifungal activity against Candida tropicalis GIM 2.183 assessed as inhibition of fungal growth by NCCLS protocol based method.
Another assay relates to Cryptococcus neoformans. Kind of assay: Antifungal activity against Cryptococcus neoformans GIM 2.209 assessed as inhibition of fungal growth by NCCLS protocol based method.
The subject of assay [1] is Candida albicans. Kind of assay: Antifungal activity against Candida albicans GIM 2.194 assessed as inhibition of fungal growth by NCCLS protocol based method.
Assay [2] relates to Candida albicans. Kind of assay: Antifungal activity against Candida albicans SC5314 assessed as inhibition of fungal growth by NCCLS protocol based method.

≈ marks a conversion by molar mass, not a printed value.

On to `Brc1ccc2cc(C3=NC(Cn4cncn4)(c4ccccc4)CO3)sc2c1` (stereo not given), for which the MIC in the assay with Aspergillus fumigatus was 0.5 µg/mL (≈ 1.14 µM); in the assay with Candida tropicalis, 0.06 µg/mL (≈ 0.137 µM); with Cryptococcus neoformans, 0.25 µg/mL (≈ 0.569 µM); in the assay on Candida albicans [1] it was 0.06 µg/mL (≈ 0.137 µM); with Candida albicans [2], < 0.03 µg/mL.
`c1ccc(C2=NC(Cn3cncn3)(c3ccccc3)CO2)cc1` (stereo not given): the MIC in the assay with Aspergillus fumigatus was > 64 µg/mL; in the assay on Candida tropicalis, > 64 µg/mL; in the assay with Cryptococcus neoformans it was > 64 µg/mL; in the assay on Candida albicans [1], > 16 µg/mL; in the assay on Candida albicans [2], > 16 µg/mL.
On to `FC(F)(F)Oc1ccc2cc(C3=NC(Cn4cncn4)(c4ccccc4)CO3)sc2c1` (stereo not given), for which the minimal inhibitory concentration (MIC) in the assay on Aspergillus fumigatus was > 64 µg/mL; in the assay on Candida tropicalis, > 16 µg/mL; with Cryptococcus neoformans it was > 64 µg/mL; in the assay with Candida albicans [1], > 16 µg/mL; in the assay with Candida albicans [2], 0.06 µg/mL (≈ 0.135 µM).
Regarding `Clc1ccc2cc(C3=NC(Cn4cncn4)(c4ccccc4)CO3)sc2c1` (stereo not given), the minimal inhibitory concentration (MIC) in the assay on Aspergillus fumigatus is 0.5 µg/mL (≈ 1.27 µM); with Candida tropicalis it was 0.06 µg/mL (≈ 0.152 µM); with Cryptococcus neoformans, 0.25 µg/mL (≈ 0.633 µM); with Candida albicans [1], 0.06 µg/mL (≈ 0.152 µM); with Candida albicans [2], < 0.03 µg/mL.
As to `c1ccc(-c2nnc(-c3ccc(C4=NC(Cn5cncn5)(c5ccccc5)CO4)cc3)o2)cc1` (stereo not given), the minimum inhibitory concentration (MIC) in the assay with Aspergillus fumigatus was > 64 µg/mL; in the assay on Candida tropicalis, > 64 µg/mL; in the assay on Cryptococcus neoformans it was > 64 µg/mL; with Candida albicans [1], > 16 µg/mL; in the assay with Candida albicans [2], > 16 µg/mL.
As for `c1ccc(C2(Cn3cncn3)COC(c3cc4ccccc4s3)=N2)cc1` (stereo not given), the minimal inhibitory concentration (MIC) with Aspergillus fumigatus was 1 µg/mL (≈ 2.77 µM); in the assay with Candida tropicalis, 2 µg/mL (≈ 5.55 µM); in the assay with Cryptococcus neoformans, 0.25 µg/mL (≈ 0.694 µM); with Candida albicans [1], 1 µg/mL (≈ 2.77 µM); in the assay with Candida albicans [2] it was 0.25 µg/mL (≈ 0.694 µM).
As to `FC(F)(F)Oc1ccc2sc(C3=NC(Cn4cncn4)(c4ccccc4)CO3)cc2c1` (stereo not given), the minimum inhibitory concentration (MIC) with Aspergillus fumigatus is > 64 µg/mL; in the assay on Candida tropicalis it was 0.25 µg/mL (≈ 0.563 µM); with Cryptococcus neoformans it was > 64 µg/mL; with Candida albicans [1] it was 0.06 µg/mL (≈ 0.135 µM); in the assay with Candida albicans [2], < 0.03 µg/mL.
With `Brc1ccc2sc(C3=NC(Cn4cncn4)(c4ccccc4)CO3)cc2c1` (stereo not given), the minimal inhibitory concentration (MIC) with Aspergillus fumigatus is > 64 µg/mL; in the assay on Candida tropicalis, > 16 µg/mL; in the assay with Cryptococcus neoformans, > 64 µg/mL; in the assay on Candida albicans [1] it was > 16 µg/mL; in the assay on Candida albicans [2] it was > 16 µg/mL.
With `N#Cc1ccc2sc(C3=NC(Cn4cncn4)(c4ccccc4)CO3)cc2c1` (stereo not given), the MIC in the assay with Aspergillus fumigatus is > 64 µg/mL; in the assay with Candida tropicalis it was > 16 µg/mL; with Cryptococcus neoformans, > 64 µg/mL; in the assay with Candida albicans [1], > 16 µg/mL; in the assay on Candida albicans [2], > 16 µg/mL.
Take `Fc1cc(F)cc(C2(Cn3cncn3)COC(c3cc4ccc(Cl)cc4s3)=N2)c1` (stereo not given): the minimum inhibitory concentration (MIC) with Aspergillus fumigatus was > 64 µg/mL; in the assay with Candida tropicalis, 0.125 µg/mL (≈ 0.29 µM); in the assay on Cryptococcus neoformans, 0.25 µg/mL (≈ 0.58 µM); in the assay on Candida albicans [1] it was 0.06 µg/mL (≈ 0.139 µM); in the assay with Candida albicans [2], 0.06 µg/mL (≈ 0.139 µM).
Consider `CCC(C)n1ncn(-c2ccc(N3CCN(c4ccc(OCC5COC(Cn6cncn6)(c6ccc(Cl)cc6Cl)O5)cc4)CC3)cc2)c1=O` (stereo not given) [ITRACONAZOLE], for which the minimal inhibitory concentration (MIC) with Aspergillus fumigatus was < 0.125 µg/mL; with Candida tropicalis, < 0.03 µg/mL; in the assay with Cryptococcus neoformans, < 0.125 µg/mL; in the assay with Candida albicans [1], < 0.03 µg/mL; with Candida albicans [2] it was < 0.03 µg/mL.
In the case of `Fc1ccc(C2(Cn3cncn3)COC(c3cc4ccc(Cl)cc4s3)=N2)c(F)c1` (stereo not given), the minimum inhibitory concentration (MIC) in the assay on Aspergillus fumigatus was > 64 µg/mL; with Candida tropicalis, 0.06 µg/mL (≈ 0.139 µM); in the assay on Cryptococcus neoformans, 0.25 µg/mL (≈ 0.58 µM); in the assay with Candida albicans [1], < 0.03 µg/mL; in the assay with Candida albicans [2], 0.06 µg/mL (≈ 0.139 µM).
For `Fc1cc(F)cc(C2(Cn3cncn3)COC(c3cc4ccc(Br)cc4s3)=N2)c1` (stereo not given), the minimum inhibitory concentration (MIC) was > 64 µg/mL in the assay on Aspergillus fumigatus; 0.125 µg/mL (≈ 0.263 µM) with Candida tropicalis; 0.25 µg/mL (≈ 0.526 µM) in the assay on Cryptococcus neoformans; 0.06 µg/mL (≈ 0.126 µM) with Candida albicans [1]; 0.06 µg/mL (≈ 0.126 µM) in the assay on Candida albicans [2].
With `Clc1ccc2sc(C3=NC(Cn4cncn4)(c4ccccc4)CO3)cc2c1` (stereo not given), the MIC with Aspergillus fumigatus was 32 µg/mL (≈ 81 µM); in the assay on Candida tropicalis it was > 16 µg/mL; in the assay with Cryptococcus neoformans, > 64 µg/mL; in the assay on Candida albicans [1], > 16 µg/mL; with Candida albicans [2], 0.5 µg/mL (≈ 1.27 µM).
As to `c1ccc(C2(Cn3cncn3)COC(c3nc4ccccc4s3)=N2)cc1` (stereo not given), the minimal inhibitory concentration (MIC) was > 64 µg/mL in the assay with Aspergillus fumigatus; > 64 µg/mL in the assay on Candida tropicalis; > 64 µg/mL in the assay on Cryptococcus neoformans; > 16 µg/mL with Candida albicans [1]; > 16 µg/mL with Candida albicans [2].
